Reference: PubChem BioAssay (NCI)
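Each compound was tested at five concentrations against cells in 96-well plates for 48 hours. TGI marks complete inhibition of growth.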

Columns and labels:
Test in all cases: NCI anticancer screen, dose series, 48 h
SK-OV-3 ovarian = system: SK-OV-3 ovarian
RXF 393 renal = system: RXF 393 renal
MOLT-4 leukemia = system: MOLT-4 leukemia
786-0 renal = system: 786-0 renal
M14 melanoma = system: M14 melanoma
ACHN renal = system: ACHN renal
HOP-92 NSCLC = system: HOP-92 NSCLC
UO-31 renal = system: UO-31 renal
SF-268 CNS = system: SF-268 CNS
HCT-116 colon = system: HCT-116 colon
MDA-MB-231 breast = system: MDA-MB-231 breast
UACC-257 melanoma = system: UACC-257 melanoma
NCI-H460 lung = system: NCI-H460 lung
K-562 leukemia = system: K-562 leukemia
MDA-MB-435 = system: MDA-MB-435
IGROV1 ovarian = system: IGROV1 ovarian
HOP-62 NSCLC = system: HOP-62 NSCLC
MCF7 breast = system: MCF7 breast
OVCAR-3 ovarian = system: OVCAR-3 ovarian
SNB-75 CNS = system: SNB-75 CNS
SK-MEL-2 melanoma = system: SK-MEL-2 melanoma
CAKI-1 renal = system: CAKI-1 renal
TK-10 renal = system: TK-10 renal
HCT-15 colon = system: HCT-15 colon
SR leukemia = system: SR leukemia
NCI-H23 lung = system: NCI-H23 lung
SW-620 colon = system: SW-620 colon
SNB-19 CNS = system: SNB-19 CNS
UACC-62 melanoma = system: UACC-62 melanoma
SK-MEL-5 melanoma = system: SK-MEL-5 melanoma
SF-539 CNS = system: SF-539 CNS
DU-145 prostate = system: DU-145 prostate
SF-295 CNS = system: SF-295 CNS
BT-549 breast = system: BT-549 breast
HL-60(TB) leukemia = system: HL-60(TB) leukemia
COLO 205 colon = system: COLO 205 colon
LOX IMVI melanoma = system: LOX IMVI melanoma
KM12 colon = system: KM12 colon
T-47D breast = system: T-47D breast
RPMI-8226 leukemia = system: RPMI-8226 leukemia
U251 CNS = system: U251 CNS
CCRF-CEM leukemia = system: CCRF-CEM leukemia
A498 renal = system: A498 renal
OVCAR-5 ovarian = system: OVCAR-5 ovarian
EKVX NSCLC = system: EKVX NSCLC
HCC-2998 colon = system: HCC-2998 colon
SN12C renal = system: SN12C renal
HS 578T breast = system: HS 578T breast
PC-3 prostate = system: PC-3 prostate
A549 NSCLC = system: A549 NSCLC
OVCAR-4 ovarian = system: OVCAR-4 ovarian
MDA-N = system: MDA-N
OVCAR-8 ovarian = system: OVCAR-8 ovarian
MALME-3M melanoma = system: MALME-3M melanoma
NCI-H226 lung = system: NCI-H226 lung
NCI-H522 lung = system: NCI-H522 lung
HT29 colon = system: HT29 colon
SK-MEL-28 melanoma = system: SK-MEL-28 melanoma

SMILES: C[C@H]1S[C@H](c2c(Cl)cccc2Cl)N2Cc3ccccc3N=C12
- TGI (SK-OV-3 ovarian): 38.3 µM
- TGI (RXF 393 renal): 30.4 µM
- TGI (MOLT-4 leukemia): > 100 µM
- TGI (786-0 renal): 23 µM
- TGI (M14 melanoma): 32.4 µM
- TGI (ACHN renal): 26.5 µM
- TGI (HOP-92 NSCLC): > 100 µM
- TGI (UO-31 renal): 26.3 µM
- TGI (SF-268 CNS): 32.5 µM
- TGI (HCT-116 colon): 16.3 µM
- TGI (MDA-MB-231 breast): > 100 µM
- TGI (UACC-257 melanoma): 45.6 µM
- TGI (NCI-H460 lung): 32.4 µM
- TGI (K-562 leukemia): > 100 µM
- TGI (MDA-MB-435): > 100 µM
- TGI (IGROV1 ovarian): 26.1 µM
- TGI (HOP-62 NSCLC): 32.6 µM
- TGI (MCF7 breast): 42.1 µM
- TGI (OVCAR-3 ovarian): 26.9 µM
- TGI (SNB-75 CNS): 32.4 µM
- TGI (SK-MEL-2 melanoma): 26.1 µM
- TGI (CAKI-1 renal): > 100 µM
- TGI (TK-10 renal): 41.9 µM
- TGI (HCT-15 colon): 33.7 µM
- TGI (SR leukemia): > 100 µM
- TGI (NCI-H23 lung): 28.8 µM
- TGI (SW-620 colon): > 100 µM
- TGI (SNB-19 CNS): 23.3 µM
- TGI (UACC-62 melanoma): 26.1 µM
- TGI (SK-MEL-5 melanoma): 23.3 µM
- TGI (SF-539 CNS): 38.1 µM
- TGI (DU-145 prostate): 27.5 µM
- TGI (SF-295 CNS): 21.9 µM
- TGI (BT-549 breast): > 100 µM
- TGI (HL-60(TB) leukemia): > 100 µM
- TGI (COLO 205 colon): 25.2 µM
- TGI (LOX IMVI melanoma): 32.6 µM
- TGI (KM12 colon): 27.8 µM
- TGI (T-47D breast): 36.4 µM
- TGI (RPMI-8226 leukemia): > 100 µM
- TGI (U251 CNS): > 100 µM
- TGI (CCRF-CEM leukemia): > 100 µM
- TGI (A498 renal): 66 µM
- TGI (OVCAR-5 ovarian): 37.5 µM
- TGI (EKVX NSCLC): 23.4 µM
- TGI (HCC-2998 colon): 29.5 µM
- TGI (SN12C renal): > 100 µM
- TGI (HS 578T breast): 42.3 µM
- TGI (PC-3 prostate): 37.7 µM
- TGI (A549 NSCLC): 40.3 µM
- TGI (OVCAR-4 ovarian): > 100 µM
- TGI (MDA-N): > 100 µM

SMILES: C=CCOCn1cc(C)c(=O)[nH]c1=O
- TGI (SK-OV-3 ovarian): > 100 µM
- TGI (OVCAR-8 ovarian): > 100 µM
- TGI (MOLT-4 leukemia): > 100 µM
- TGI (786-0 renal): > 100 µM
- TGI (M14 melanoma): > 100 µM
- TGI (ACHN renal): > 100 µM
- TGI (UO-31 renal): > 100 µM
- TGI (SF-268 CNS): > 100 µM
- TGI (HCT-116 colon): > 100 µM
- TGI (MDA-MB-231 breast): > 100 µM
- TGI (UACC-257 melanoma): > 100 µM
- TGI (MALME-3M melanoma): > 100 µM
- TGI (NCI-H460 lung): > 100 µM
- TGI (K-562 leukemia): > 100 µM
- TGI (NCI-H226 lung): > 100 µM
- TGI (MDA-MB-435): > 100 µM
- TGI (IGROV1 ovarian): > 100 µM
- TGI (HOP-62 NSCLC): > 100 µM
- TGI (MCF7 breast): > 100 µM
- TGI (SNB-75 CNS): > 100 µM
- TGI (CAKI-1 renal): > 100 µM
- TGI (TK-10 renal): > 100 µM
- TGI (HCT-15 colon): > 100 µM
- TGI (SR leukemia): > 100 µM
- TGI (NCI-H23 lung): > 100 µM
- TGI (SW-620 colon): > 100 µM
- TGI (NCI-H522 lung): 50.2 µM
- TGI (SNB-19 CNS): > 100 µM
- TGI (UACC-62 melanoma): > 100 µM
- TGI (SK-MEL-5 melanoma): > 100 µM
- TGI (SF-539 CNS): > 100 µM
- TGI (DU-145 prostate): > 100 µM
- TGI (SF-295 CNS): > 100 µM
- TGI (BT-549 breast): > 100 µM
- TGI (HL-60(TB) leukemia): > 100 µM
- TGI (COLO 205 colon): > 100 µM
- TGI (LOX IMVI melanoma): > 100 µM
- TGI (KM12 colon): > 100 µM
- TGI (HT29 colon): > 100 µM
- TGI (T-47D breast): > 100 µM
- TGI (RPMI-8226 leukemia): > 100 µM
- TGI (CCRF-CEM leukemia): > 100 µM
- TGI (A498 renal): > 100 µM
- TGI (EKVX NSCLC): > 100 µM
- TGI (SK-MEL-28 melanoma): > 100 µM
- TGI (HCC-2998 colon): > 100 µM
- TGI (SN12C renal): > 100 µM
- TGI (HS 578T breast): > 100 µM
- TGI (PC-3 prostate): > 100 µM
- TGI (A549 NSCLC): > 100 µM
- TGI (MDA-N): > 100 µM
